Source: US7384657B2, “Composition of natural herb extract for treating cardiovascular disease and its method of preparation thereof” (priority 2004, dated 2008)
Entries after “also recorded” stand apart in the source; their conditions may differ.

Columns and labels:
[1] = Tanshinone bile excretion and intrahepatic transformation; assay type: in vivo, rats
Description: The experimental animal is male rats each weighs 350-400 g. Intraperitoneal anesthesia with 10% of 1 g/kg malarin is employed. Insert it into the common bile duct with infantile scalp needle. After it is fixed, collect bile, for 1 hour quantity, to be used as blank contrast. Small amount of dimethyl formamide added to the medicine. And then, 1% carboxymethyl cellulose is diluted to 10 mg/ml. Administer to the duodenum and followed by scheduled fixed quantity of bile collection. The bile stays overnight in the fridge. Abstract twice with chloroform and combine with chloroform liquid. Conduct water bath and dry it by evaporation. Keep it in the desiccators. Before the test, fixed quantity dilution is conducted by using 50 ml chloroform and followed by high pressure liquid's separation and fixation of quantity. The change of Tanshinone in the liver hemogenate: After a larger male […], weighs 160 g, is anesthetized, its liver is taken and weighed. Use 0.15M potassium chloride and 0.24M amide to manufacture hemogenate. Use double-deck gauze for filtrating. Again, with the above-mentioned solution, dilute the filtrate to every 10 ml which equals to the 6 g weight of the liver tissue. Add 4 ml of pH 7.4 phosphoric buffer solution and 2 ml liver hemogenate to the 100 ml conical flask. 1 mg specimen of Tanshinone dissolves in 95% of 0.2 ml ethanol. 0.2 ml of 95% ethanol liquid, which contains no tashinone, is added to the control group. Keep it warm at 37° C. for 2 hours. When the reaction ceases, use 12 ml chloroform to extract twice separately. Merge with the extract, and conduct water bath and dry it by evaporation. Before the test, the specimen is dissolved with 100 ml chloroform. Use the thin layer for separating and quantity fixing [silica-CMC thin layer; developer is benzene-acetone (95:5)]. […] The peak of excretion takes place in about 3 hours after the administration. […] Quantity of Tanshinone IIA in the bile excretion from animal of such group is 5 to 10 times higher than the Tanshinone IIA group. […]

[2] = puerarin aglycone, left ventricular function index; assay type: in vivo; conditions: dog
Text: Study proves puerarin is able to mitigate the angina pectoris, contracted, remarkably and improve the ischemic electrocardiogram. It reduces the myocardial oxygen consumption. Puerarin can slow down the rate of the heart pulsation and enhance the myocardial systolic power. […] Puerarin is able to outstandingly reduce the tension-time index (TTI) and the ascending rate of the left ventricular pressure. The effect of puerarin on ischemic myocardium is reducing the resistance of the coronary artery's lateral branch. Puerarin is able to mitigate clearly the PG angina pectoris and improve the ischemic electrocardiogram. […] It enables the reduction of coronary artery's resistance and the increase of coronary artery's flow volume. Thus, it is advantageous to the improvement of balance of supply and need. And also, it has the obvious effect on resisting the arrhythmia.

[3] = pharmacokinetics of oxymatrine and matrine in mice; conditions: mouse, in vivo
[4] = test system: isolated rats's right atrium; assay: isolated rats's right atrium
Text: (§1) It is antagonistic to the acceleration of heart rate induced by isopropylnoradrenaline.

[5] = intravenous matrine in rats: arrhythmia and ECG; assay type: in vivo
Text: as §1

[6] = intravenous matrine injection in cat; assay type: in vivo; conditions: 1 mg/kg i.v.
Text: The curative effect of matrine upon the premature heartbeat, caused by various reasons, is relatively better. It is partially effective on the supraventricular arrhythmia. In clinical study, matrine's tablet is employed to treat 167 cases of arrhythmia.

[7] = test system: isolated guinea pig's right and left atrium; assay: isolated guinea pig's atria
Text: The effect of alkaloids on heart function is studied. […] Furthermore, it presents dosage dependent relation. The function of its negative frequency, positive inotropic action and negative maximum driving force (MDF) appears to be linear correlation. Matrine is able to inhibit the aconitine to induce the rats's left atrial automatic rhythmicity effect, or, prolong the aconitine to induce the latent period's auto-rhythmicity or slow down its initial frequency. Also, it is able to heighten the ouabin to induce the guinea pig's right atrial arrhythmia and the adrenal gland injection to induce the auto-consistency of guinea pig's left atrium. Moreover, it has the enhancement effect on the positive inotropic action of ouabin.
In fact, all of them are dosage dependence relation. […] It clearly prolongs inducement of the latent period of auto-rhythmicity and slows down the inducement of auto-rhythmicity's initial frequency. It is also able to raise ouabin to induce the isolated guinea pig's right atrial arrhythmia and the adrenal gland inducing the isolated guinea pig's left atrial auto-rhythmicity's consistency.

[8] = subcutaneous injection; cited from earlier work
[9] = solubility
Description: Matrine is also called matricaria. Its molecular formula is C15H24N2O and its molecular weight is 248.36. It has four isomers: α, β, γ, and δ isomers. α-matrine is the one commonly seen. It is a needle or rhombohedral crystal, having a melting point 76° C. and [α]D+39.1° (H2O).
Oxymatrine has a molecular formula C15H24N2O2 and a molecular weight 264.36. It is a colorless columnar crystal (Me2CO), melting point 162° C. (hydrate), 207° C. (anhydrate), [α]D+47.7° (C2H5OH). […] It can change to matrine through reaction with SO2.

[10] = intramuscular matrine crystal in dog
Description: Intramuscular injection of matrine crystal 200 mg/kg given to the dog. […] Dog is administrated with daily intramuscular injection 0.5 g. […] 1-3 treatment courses are carried out altogether.

Molecule: C[C@H]1COC2=C1C(=O)C(=O)c1c2ccc2c1CCCC2(C)C [latent Tanshinone]
- transformation in the liver ([1]; rat, in vivo): can transform into Tanshinone IIA

Molecule: O=c1c(-c2ccc(O)cc2)coc2cc(O)ccc12 [puerarin aglycone]
- lowering of left ventricular function index [2]: 14.3%

Molecule: Matrine
- gastrointestinal absorption [3]: easier to be absorbed by the gastrointestinal tract
- calcium-antagonism effect [4]: no calcium-antagonism effect
- right atrial spontaneous frequency [4]: clearly slows down
- heart rate ([5]; 18.75 mg/kg): heart rate slows down clearly
- arrhythmia caused by aconitine, barium chloride and ligation of coronary artery ([5]; i.v.): significantly able to resist the arrhythmia
- blood flow capacity of the coronary artery [6]: increases
- heart rate [6]: slowdown of cat's heart rate emerges
- left atrial maximum driving force (MDF) [7]: reduces the left atrial maximum driving force
- right atrial systolic power [7]: increases the right atrial systolic power
- aconitine-induced left atria automatic rhythmicity ([7]; 3 μmol/L): significantly inhibits
- automatic frequency of right atrium ([7]; dosage dependent): slow down the automatic frequency of guinea pig's right atrium; also recorded: obvious negative frequency effect
- LD50 [8]: 297 ± 18 mg/kg
- solubility [9]: soluble in water, benzene, chloroform, ether and carbon sulfide and nearly insoluble in petroleum ether
- abnormal phenomenon ([10]; 200 mg/kg intramuscular, 6 hours of observation): no abnormal phenomenon except slightly being quiet
- mental state, activity condition and hemogram ([10]; 0.5 g daily intramuscular, 14 days): no apparent abnormal phenomenon
- pathologic examination of the myocardium ([10]; 0.5 g daily, 13-day courses, 1-3 courses): no obvious change

Molecule: Tanshinone
- time of peak of bile excretion ([1]; duodenal administration): about 3 hours
- time until Tanshinone is found in the bile ([1]; duodenal administration): in about an hour
